Measurements: patent US8299262B2, “Pyridylmethyl-sulfonamide compounds” (BASF SE, priority 2007, dated 2012)
Where two headings read alike, the source gives them in different places.

Assays:
[1] = tested on: Pyrenophora teres; experiment: Synergistic mixtures, microtiter test, net blotch pathogen Pyrenophora teres (Use Example 29); assay type: cell-based; conditions: single compound
[2] = tested on: Septoria glycines; experiment: Microtiter test, Septoria glycines (Use Example 7); assay type: cell-based; conditions: 125 ppm; control =100%, day 7
[3] = tested on: Gaeumannomyces graminis; experiment: Synergistic mixtures, microtiter test, Gaeumannomyces graminis (Use Example 30); assay type: cell-based; conditions: single compound
[4] = tested on: Thielaviopsis basicola; experiment: Synergistic mixtures, microtiter test, Thielaviopsis basicola (Use Example 31); assay type: cell-based; conditions: single compound
[5] = tested on: Fusarium culmorum; experiment: Synergistic mixtures, microtiter test, Fusarium culmorum (Use Example 27); assay type: cell-based; conditions: single compound, 16 ppm
[6] = tested on: Alternaria solani; experiment: Synergistic mixtures, microtiter test, early blight pathogen Alternaria solani (Use Example 24); assay type: cell-based; conditions: single compound, 0.063 ppm
[7] = tested on: Verticillium dahliae; conditions: single compound, 4 ppm
[8] = tested on: Puccinia recondita; experiment: Synergistic mixtures, greenhouse, preventative control of brown rust on wheat caused by Puccinia recondita (Use Example 34); assay type: in vivo; conditions: single compound, untreated control 90% disease
Description: These percentages were converted into efficacies. An efficacy of 0 means that the growth level of the pathogens corresponds to that of the untreated control; an efficacy of 100 means that the pathogens were not growing.
The expected efficacies of active compound mixtures were determined using Colby's formula [R. S. Colby, Calculating synergistic and antagonistic responses of herbicide combinations, Weeds 15, 20-22 (1967)] and compared with the observed efficacies. E=x+y−x·y/100 Colby's formula • E expected efficacy, expressed in % of the untreated control, when using the mixture of the compounds A and B at the concentration a and b • x efficacy, expressed in % of the untreated control, when using compound A at a concentration of a • y efficacy, expressed in % of the untreated control, when using compound B at a concentration of b A) Microtiter Tests
The spray solutions were prepared in several steps:
The stock solution were prepared as follows: a mixture of acetone and/or dimethylsulfoxide and the wetting agent/emulsifier Wettol, which is based on ethoxylated alkylphenoles, in a relation (volume) solvent-emulsifier of 99 to 1 was added to 25 mg of the compound to give a total of 10 ml. Water was then added to total volume of 100 ml.
This stock solution was diluted with the described solvent-emulsifier-water mixture to the given concentration. The compounds pyraclostrobin, boscalid and epoxiconazole were used as commercial finished formulations and diluted with water to the stated concentration of the active compound.
The first two developed leaves of pot-grown wheat seedling were sprayed to run-off with an aqueous suspension, containing the concentration of active ingredient or their mixture as described below. The next day the plants were inoculated with spores of Puccinia recondita. To ensure the success the artificial inoculation, the plants were transferred to a humid chamber without light and a relative humidity of 95 to 99% and at temperatures between 20 and 24° C. for 24 h. Then, the plants were cultivated for 6 days in a greenhouse chamber at 20 to 24° C. and a relative humidity between 65 and 70%. The extent of fungal attack on the leaves was visually assessed as % diseased leaf area.

[9] = tested on: Fusarium oxysporum; conditions: single compound, 16 ppm
[10] = tested on: Septoria tritici; experiment: Synergistic mixtures, microtiter test, leaf blotch pathogen Septoria tritici (Use Example 26); assay type: cell-based; conditions: single compound, 4 ppm
[11] = tested on: Colletotrichum truncatum; experiment: Synergistic mixtures, microtiter test, Colletotrichum truncatum (Use Example 28); assay type: cell-based; conditions: single compound, 16 ppm
[12] = tested on: Pyricularia oryzae; assay type: cell-based; conditions: single compound

Compound	Observed efficacy (%) ([1]; 0.25 ppm)	Observed efficacy (%) ([1]; 1 ppm)	relative growth of the pathogen [2]	Observed efficacy (%) ([3]; 0.063 ppm)	Observed efficacy (%) ([4]; 4 ppm)	Observed efficacy (%) ([4]; 16 ppm)	Observed efficacy (%) [5]	Observed efficacy (%) [6]	Observed efficacy (%) [7]	Observed efficacy (%) ([8]; 4 ppm)	Observed efficacy (%) ([8]; 16 ppm)	Observed efficacy (%) ([3]; 0.016 ppm)	Observed efficacy (%) [9]	Observed efficacy (%) [10]	Observed efficacy (%) [11]	Observed efficacy (%) ([4]; 1 ppm)	Observed efficacy (%) ([12]; 0.063 ppm)	Observed efficacy (%) ([12]; 0.25 ppm)
COc1cnccc1CNS(=O)(=O)c1ccc(Oc2ccccn2)cc1 [Example 8]	0%	9%	at most 25%	0%	11%	6%	0%	3%	–	–	–	–	–	–	–	–	–	–
Cc1nccc(CNS(=O)(=O)c2ccc(Oc3ncc(C(F)(F)F)cc3Cl)cc2)c1C [Example 27]	–	31%	–	–	21%	–	0%	–	56%	0%	22%	58%	13%	47%	45%	1%	65%	65%
